Values of other authors, collected in US20240358731A1, “SUMO PATHWAY AS AN OXYGEN SENSOR RELEVANT TO THE PATHOPHYSIOLOGY OF PULMONARY ARTERY HYPERTENSION AND CARDIAC ARRHYTHMIA” (Northeastern University, priority 2023, published 2024).
Non-standard residues stand in square brackets, D forms with d. Residues, ends and D or L forms follow the SMILES beside them. ξ: configuration not given here. *: point of attachment. X2 = O=C(CN*)COC(=O)c1c2ccccc2cc2ccccc12; X1 = O=C(Cc1ccc(O)c([N+](=O)[O-])c1)*; Thr(3ξ) = CC(O)[C@H](N)C(=O)O

system: SUMOylation; conditions: cited from earlier work

| Compound | SUMOylation inhibition |
| --- | --- |
| Cc1cc2c(o1)-c1ccccc1C(=O)C2=O [33-DINOR-dehydrodunnione] | potent SUMOylation inhibitors |
| CC1CC2=C(O1)c1ccccc1C(=O)C2=O (stereo not shown) [33-DINOR-dunnione] | potent SUMOylation inhibitors |
| COC(=O)C1=C(C(=O)OC)C2([C@@H](Cc3ccc(C)cc3)Nc3ccccc3)C=CC1O2 (stereo partly shown) [COH000] | more potent SUMOylation inhibitor |
| CCc1cc(=O)[nH]c(-n2nc(-c3ccccc3)cc2NC(=O)Nc2ccc(C(C)(C)C)cc2)n1 [Pyrazole urea] | potent molecules capable of inhibiting SUMOylation in vitro |
| CC1CC2=C(O1)c1cccc(O)c1C(=O)C2=O (stereo not shown) [nocardione A] | potent SUMOylation inhibitors |
| COc1cc(NC(=O)Nc2nc(-c3nc4ccccc4s3)cs2)cc(OC)c1OC [thiazole urea] | potent molecules capable of inhibiting SUMOylation in vitro |

system: SENP; conditions: cited from earlier work

| Compound | SENP inhibition | inhibition of SUMO2 maturation |
| --- | --- | --- |
| O=CCN1C(=O)C(NC(=O)c2cccc(NC(=O)OCc3ccccc3)c2)N=C(c2ccccc2)c2ccccc21 (stereo not shown) [Compound 39] | potent and selective SENP inhibition | – |
| O=C(COC(=O)c1ccc(NC(=O)c2cccc(OCc3ccccc3)c2)cc1)c1ccc(Cl)cc1 [Compound 43] | modest improvement in activity | – |
| CCOc1ccc(-c2nonc2NC(=O)COc2ccc(Cl)c(C)c2)cc1C [Compound 46] | potent and selective SENP inhibition | – |
| Cc1cc(OCC(=O)Nc2nonc2NC(=O)COc2ccc(Cl)c(C)c2)ccc1Cl [Compound 47] | potent and selective SENP inhibition | – |
| O=C(NCc1cccc(CNC(=O)c2sc3cc(F)ccc3c2Cl)c1)c1sc2cc(F)ccc2c1Cl [Compound 49] | potent and selective SENP inhibition | – |
| O=C(Nc1cccc(NC(=O)c2ccc(-c3cc(Cl)ccc3Cl)o2)c1)c1ccccc1 [Compound 50] | potent and selective SENP inhibition | – |
| COc1ccc(-c2cccc(C(=O)NCc3cccc(NC(=O)CCc4ccccc4)c3)c2)cc1 [Compound 51] | potent and selective SENP inhibition | – |
| CNC(=O)c1cc(COC(=O)c2ccc3c(c2)c(COc2ccc4[nH]ccc4c2)cn3S(C)(=O)=O)cc(=O)[nH]1 [Compound 52] | potent and selective SENP inhibition | – |
| CS(=O)(=O)n1cc(COc2ccc3[nH]ccc3c2)c2cc(C(=O)OCc3cc(C#N)[nH]c(=O)c3)ccc21 [Compound 53] | potent and selective SENP inhibition | – |
| CNC(=O)c1cc(CNC(=O)c2ccc3c(c2)c(COc2ccc4[nH]ccc4c2)cn3S(C)(=O)=O)cc(=O)[nH]1 [Compound 54] | potent and selective SENP inhibition | – |
| O=C1C(O)=C(c2ccc(O)cc2)C(=O)C(O)=C1c1ccc(O)cc1 [NSC76919] | exhibited inhibitory activity | – |
| O=C(/C=C/C1C(OC(=O)c2ccc(-c3ccccc3)cc2)CC2OC(=O)CC21)Oc1cccc(Cl)c1 (stereo not shown) [SI2] | potent and selective SENP inhibition | – |
| Cc1cc(-c2ccc(/N=N/c3c(N)c(S(=O)(=O)O)cc4cc(S(=O)(=O)O)ccc34)c(C)c2)ccc1/N=N/c1c(N)ccc2ccc(S(=O)(=O)O)cc12 [SPI-02] | – | more active at inhibiting SUMO2 maturation |
| CC(O)[C@H](NC(=O)[C@H](CCC(N)=O)NC(=O)Cc1ccc(O)c([N+](=O)[O-])c1)C(=O)NCC(=O)NCC(=O)COC(=O)c1c2ccccc2cc2ccccc12 (stereo partly shown) [VAE-499] | more potent and selective SENP inhibitors | – |
| CC(O)[C@H](NC(=O)[C@H](CCC(N)=O)NC(=O)[C@H](CCC(N)=O)NC(=O)Cc1ccc(O)c([N+](=O)[O-])c1)C(=O)NCC(=O)NCC(=O)COC(=O)c1c2ccccc2cc2ccccc12 (stereo partly shown) [VAE-500] (X1-QQ[Thr(3ξ)]G-X2) | more potent and selective SENP inhibitors | – |
| CC(C)C[C@H](NC(=O)Cc1ccc(O)c([N+](=O)[O-])c1)C(=O)N[C@@H](CCCNC(=N)N)C(=O)NCC(=O)NCC(=O)COC(=O)c1c2ccccc2cc2ccccc12 [VAE-561] | more potent and selective SENP inhibitors | – |
